The test has as its target REV-ERBα LBD (Homo sapiens, UniProt P20393, DEL324-422). The test is described as follows: biochemical. Conditions: FRET assay; 6xHistag-REV-ERBα LBD with FITC-labeled SMRT corepressor peptide; read-out: REVERBα (Agonism of REV-ERBα, EC50). In short, it runs like this:
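TR-FRET corepressor recruitment: 4 nM His-tagged human REV-ERBα LBD (residues 281-614 Δ324-422, or 381-579), 1 nM Tb-anti-His antibody and 400 nM FITC-SMRT peptide in pH 7.4 phosphate buffer with DTT; ligands in triplicate, 2 h at 4° C. 520/495 nm ratio fitted to sigmoidal dose-response for EC50.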

Each structure is given as a SMILES string.

One may read the EC50 as the concentration that produces a half-maximal response.

REV-ERBα LBD, sequence (P20393 with tags, fused parts or gaps DEL324-422): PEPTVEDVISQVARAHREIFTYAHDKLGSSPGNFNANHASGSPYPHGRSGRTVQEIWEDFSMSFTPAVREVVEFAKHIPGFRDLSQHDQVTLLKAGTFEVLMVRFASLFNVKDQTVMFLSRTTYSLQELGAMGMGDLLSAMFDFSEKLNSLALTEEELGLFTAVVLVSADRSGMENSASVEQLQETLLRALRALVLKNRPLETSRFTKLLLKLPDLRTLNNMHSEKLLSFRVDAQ
REV-ERBα LBD, sequence (Q9Y618 2335-2356 partner limits assumed): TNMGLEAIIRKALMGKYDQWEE

For the compound `CC(C)(C)Cn1cc([C@H](NS(=O)(=O)C2CC2)C(F)F)c2cc(F)c(-c3c(F)cccc3C(F)F)cc21` [Compound 116, N-((1S)-1-(6-(2-(difluoromethyl)-6-fluorophenyl)-5-fluoro-1-neopentyl-1H-indol-3-yl)-2,2-difluoroethyl)cyclopropanesulfonamide], the EC50 was less than 100 nM.

Take `CC(C)(C)Cn1cc([C@H](NS(=O)(=O)C2CC2)C(F)F)c2cc(F)c(-c3ccc(F)cc3C(F)F)cc21` [Compound 117, (S)—N-(1-(6-(2-(difluoromethyl)-4-fluorophenyl)-5-fluoro-1-neopentyl-1H-indol-3-yl)-2,2-difluoroethyl)cyclopropanesulfonamide]: the EC50 is less than 100 nM. As for `CC(C)(C)Cn1cc([C@H](NS(=O)(=O)C2CC2)C(F)F)c2ccc(-c3c(C(F)F)ccnc3C#N)cc21` [Compound 118, (S)—N-(1-(6-(2-cyano-4-(difluoromethyl)pyridin-3-yl)-1-neopentyl-1H-indol-3-yl)-2,2-difluoroethyl)cyclopropanesulfonamide], the figure is less than 100 nM.

Take `CC(C)(C)Cn1cc([C@H](NS(=O)(=O)C2CC2)C(F)F)c2ccc(-c3cc(F)cnc3C(F)F)cc21` [Compound 119, (S)—N-(1-(6-(2-(difluoromethyl)-5-fluoropyridin-3-yl)-1-neopentyl-1H-indol-3-yl)-2,2-difluoroethyl)cyclopropanesulfonamide]: the EC50 was less than 100 nM.

As to `Cc1ncnc(C(F)F)c1-c1ccc2c([C@H](NS(=O)(=O)C3CC3)C(F)F)cn(CC(C)(C)C)c2c1` [Compound 120, (S)—N-(1-(6-(4-(difluoromethyl)-6-methylpyrimidin-5-yl)-1-neopentyl-1H-indol-3-yl)-2,2-difluoroethyl)cyclopropanesulfonamide], the EC50 was less than 100 nM.

Take `CC(C)(C)Cn1cc([C@H](NS(=O)(=O)C2CC2)C(F)F)c2cc(F)c(-c3c(C(F)F)ccnc3C#N)cc21` [Compound 122, N-((1S)-1-(6-(2-cyano-4-(difluoromethyl)pyridin-3-yl)-5-fluoro-1-neopentyl-1H-indol-3-yl)-2,2-difluoroethyl)cyclopropanesulfonamide]: the EC50 is less than 100 nM. Regarding `CC(C)(C)Cn1cc([C@H](NS(=O)(=O)C2CC2)C(F)F)c2cc(F)c(-c3cc(F)cnc3C(F)F)cc21` [Compound 123, (S)—N-(1-(6-(2-(difluoromethyl)-5-fluoropyridin-3-yl)-5-fluoro-1-neopentyl-1H-indol-3-yl)-2,2-difluoroethyl)cyclopropanesulfonamide], the EC50 is less than 100 nM. As for `Cn1ncc(C(F)F)c1-c1cc2c(cc1F)c([C@H](NS(=O)(=O)C1CC1)C(F)F)cn2CC(C)(C)C` [Compound 125, (S)—N-(1-(6-(4-(difluoromethyl)-1-methyl-1H-pyrazol-5-yl)-5-fluoro-1-neopentyl-1H-indol-3-yl)-2,2-difluoroethyl)cyclopropanesulfonamide], the figure is less than 100 nM; as for `Cc1ccnc(C(F)F)c1-c1cc2c(cc1F)c([C@H](NS(=O)(=O)C1CC1)C(F)F)cn2CC(C)(C)C` [Compound 127, N-((1S)-1-(6-(2-(difluoromethyl)-4-methylpyridin-3-yl)-5-fluoro-1-neopentyl-1H-indol-3-yl)-2,2-difluoroethyl)cyclopropanesulfonamide], less than 100 nM; as for `Cc1ccnc(C(F)F)c1-c1ccc2c([C@H](NS(=O)(=O)C3CC3)C(F)F)cn(CC(C)(C)C)c2c1` [Compound 128, (S)—N-(1-(6-(2-(difluoromethyl)-4-methylpyridin-3-yl)-1-neopentyl-1H-indol-3-yl)-2,2-difluoroethyl)cyclopropanesulfonamide], less than 100 nM.

In the case of `Cc1ccnc(C(F)(F)F)c1-c1cc2c(cc1F)c([C@H](NS(=O)(=O)C1CC1)C(F)F)cn2CC(C)(C)C` [Compound 129, N-((1S)-2,2-difluoro-1-(5-fluoro-6-(4-methyl-2-(trifluoromethyl)pyridin-3-yl)-1-neopentyl-1H-indol-3-yl)ethyl)cyclopropanesulfonamide], the EC50 was less than 100 nM. As for `Cc1nccc(C(F)(F)F)c1-c1cc2c(cc1F)c([C@H](NS(=O)(=O)C1CC1)C(F)F)cn2CC(C)(C)C` [Compound 130, N-((1S)-2,2-difluoro-1-(5-fluoro-6-(2-methyl-4-(trifluoromethyl)pyridin-3-yl)-1-neopentyl-1H-indol-3-yl)ethyl)cyclopropanesulfonamide], the figure is less than 100 nM. As for `CC(C)(C)Cn1cc([C@H](NS(=O)(=O)C2CC2)C(F)F)c2cc(F)c(-c3c(F)ccnc3C(F)(F)F)cc21` [Compound 131, N-((1S)-2,2-difluoro-1-(5-fluoro-6-(4-fluoro-2-(trifluoromethyl)pyridin-3-yl)-1-neopentyl-1H-indol-3-yl)ethyl)cyclopropanesulfonamide], the figure is less than 100 nM; as for `CC(C)(C)Cn1cc([C@H](NS(=O)(=O)C2CC2)C(F)F)c2cc(F)c(-c3cc(F)cnc3C(F)(F)F)cc21` [Compound 132, (S)—N-(2,2-difluoro-1-(5-fluoro-6-(5-fluoro-2-(trifluoromethyl)pyridin-3-yl)-1-neopentyl-1H-indol-3-yl)ethyl)cyclopropanesulfonamide], less than 100 nM. As for `CC(C)(C)Cn1cc([C@H](NS(=O)(=O)C2CC2)C(F)F)c2cc(F)c(-c3cnc(C#N)cc3C(F)(F)F)cc21` [Compound 133, (S)—N-(1-(6-(6-cyano-4-(trifluoromethyl)pyridin-3-yl)-5-fluoro-1-neopentyl-1H-indol-3-yl)-2,2-difluoroethyl)cyclopropanesulfonamide], the figure is less than 100 nM. Consider `CC(C)(C)Cn1cc([C@H](NS(=O)(=O)C2CC2)C(F)F)c2cc(F)c(-c3ncc(F)cc3C(F)F)cc21` [Compound 134, (S)—N-(1-(6-(3-(difluoromethyl)-5-fluoropyridin-2-yl)-5-fluoro-1-neopentyl-1H-indol-3-yl)-2,2-difluoroethyl)cyclopropanesulfonamide], for which the EC50 is less than 100 nM. Consider `CC(C)(C)Cn1cc([C@H](NS(=O)(=O)C2CCC2)C(F)F)c2cc(F)c(-c3c(C(F)(F)F)ccnc3C#N)cc21` [Compound 135, N-((1S)-1-(6-(2-cyano-4-(trifluoromethyl)pyridin-3-yl)-5-fluoro-1-neopentyl-1H-indol-3-yl)-2,2-difluoroethyl)cyclobutanesulfonamide], for which the half-maximal effective concentration (EC50) was less than 100 nM. As for `CC(C)(C)Cn1cc([C@H](NS(=O)(=O)C2CCC2)C(F)F)c2cc(F)c(-c3c(C#N)cccc3C(F)(F)F)cc21` [Compound 136, N-((1S)-1-(6-(2-cyano-6-(trifluoromethyl)phenyl)-5-fluoro-1-neopentyl-1H-indol-3-yl)-2,2-difluoroethyl)cyclobutanesulfonamide], the figure is less than 100 nM. As for `CC(C)(C)Cn1cc([C@H](NS(=O)(=O)C2CCC2)C(F)F)c2cc(F)c(-c3cc(F)cnc3C(F)(F)F)cc21` [Compound 137, (S)—N-(2,2-difluoro-1-(5-fluoro-6-(5-fluoro-2-(trifluoromethyl)pyridin-3-yl)-1-neopentyl-1H-indol-3-yl)ethyl)cyclobutanesulfonamide], the figure is less than 100 nM; as for `CC(C)(C)Cn1cc([C@H](NS(=O)(=O)C2CC2)C(F)F)c2cc(F)c(-c3ncc(C#N)cc3C(F)(F)F)cc21` [Compound 138, (S)—N-(1-(6-(5-cyano-3-(trifluoromethyl)pyridin-2-yl)-5-fluoro-1-neopentyl-1H-indol-3-yl)-2,2-difluoroethyl)cyclopropanesulfonamide], less than 100 nM. As for `Cc1ccc(-c2cc3c(cc2F)c([C@H](NS(=O)(=O)C2CC2)C(F)F)cn3CC(C)(C)C)c(C(F)(F)F)n1` [Compound 139, (S)—N-(2,2-difluoro-1-(5-fluoro-6-(6-methyl-2-(trifluoromethyl)pyridin-3-yl)-1-neopentyl-1H-indol-3-yl)ethyl)cyclopropanesulfonamide], the figure is less than 100 nM; as for `Cc1cc(C(F)(F)F)c(-c2cc3c(cc2F)c([C@H](NS(=O)(=O)C2CC2)C(F)F)cn3CC(C)(C)C)cn1` [Compound 140, (S)—N-(2,2-difluoro-1-(5-fluoro-6-(6-methyl-4-(trifluoromethyl)pyridin-3-yl)-1-neopentyl-1H-indol-3-yl)ethyl)cyclopropanesulfonamide], less than 100 nM; as for `Cc1cnc(C(F)(F)F)c(-c2cc3c(cc2F)c([C@H](NS(=O)(=O)C2CC2)C(F)F)cn3CC(C)(C)C)c1` [Compound 141, (S)—N-(2,2-difluoro-1-(5-fluoro-6-(5-methyl-2-(trifluoromethyl)pyridin-3-yl)-1-neopentyl-1H-indol-3-yl)ethyl)cyclopropanesulfonamide], less than 100 nM. On to `Cc1cnc(C(F)(F)F)c(-c2nc3c(cc2F)c([C@H](NS(=O)(=O)C2CC2)C(F)F)cn3CC(C)(C)C)c1` [Compound 142, (S)—N-(2,2-difluoro-1-(5-fluoro-6-(5-methyl-2-(trifluoromethyl)pyridin-3-yl)-1-neopentyl-1H-pyrrolo[2,3-b]pyridin-3-yl)ethyl)cyclopropanesulfonamide], for which the EC50 is less than 100 nM. As for `CC(C)(C)Cn1cc([C@H](NS(=O)(=O)C2CC2)C(F)F)c2cc(F)c(-c3cc(Cl)cnc3C(F)(F)F)cc21` [Compound 143, (S)—N-(1-(6-(5-chloro-2-(trifluoromethyl)pyridin-3-yl)-5-fluoro-1-neopentyl-1H-indol-3-yl)-2,2-difluoroethyl)cyclopropanesulfonamide], the figure is less than 100 nM; as for `Cc1cnc(-c2cc3c(cc2F)c([C@H](NS(=O)(=O)C2CC2)C(F)F)cn3CC(C)(C)C)c(C(F)(F)F)n1` [Compound 144, (S)—N-(2,2-difluoro-1-(5-fluoro-6-(5-methyl-3-(trifluoromethyl)pyrazin-2-yl)-1-neopentyl-1H-indol-3-yl)ethyl)cyclopropanesulfonamide], less than 100 nM.

(Values after patent US20260285846A1, “REV-ERB AGONISTS FOR TH17-MEDIATED INFLAMMATORY DISORDERS” (UNIVERSITY OF FLORID RESEARCH FOUNDATION, iNCORPORATED, priority 2021, published 2026).)
